System: c-myc in 22RV-1 cells
Experiment: Human c-myc ELISA assay
Format: cell-based
Details: Homo sapiens; for Emax: 22Rv1, 18 h, read-out: Degradation of BRD4: Maximum inhibition (%) c-Myc ELISA in 22RV1 cells; for DC50: 22Rv1, read-out: Degradation of BRD4: DC50 (uM) c-Myc ELISA in 22RV1 cells
Method in brief: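 22RV-1 cells treated 18 h with 8-point 1:3 compound dilutions (final top 300 nM or 1 μM, 0.1% DMSO). Cells lysed in RIPA buffer with protease/phosphatase inhibitors, and c-myc protein in cleared lysate quantified by ELISA against a standard curve. DC50 reported for c-myc suppression.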

Compound	Emax	DC50
Cc1ncsc1-c1ccc(CNC(=O)[C@@H]2C[C@@H](O)CN2C(=O)[C@@H](NC(=O)COCCCOCCCOc2ccc(NC(=O)C[C@@H]3N=C(c4ccc(Cl)cc4)c4c(sc(C)c4C)-n4c(C)nnc43)cc2)C(C)(C)C)cc1 [Example 16]	98.6%	0.01 to 0.1 µM
Cc1ncsc1-c1ccc(CNC(=O)[C@@H]2C[C@@H](O)CN2C(=O)[C@@H](c2cc(OCCN3CC[C@@H](NC(=O)C[C@@H]4N=C(c5ccc(Cl)cc5)c5c(sc(C)c5C)-n5c(C)nnc54)C3)no2)C(C)C)cc1 (single isomer, unassigned) [Example 312]	87.5%	< 0.01 µM
Cc1ncsc1-c1ccc(CNC(=O)[C@@H]2C[C@@H](O)CN2C(=O)[C@@H](NC(=O)CCc2cccc(OCCNC(=O)C[C@@H]3N=C(c4ccc(Cl)cc4)c4c(sc(C)c4C)-n4c(C)nnc43)c2)C(C)(C)C)cc1 [Example 84]	100%	< 0.01 µM
Cc1ncsc1-c1ccc([C@H](C)NC(=O)[C@@H]2C[C@@H](O)CN2C(=O)[C@@H](C(C)C)n2cc(-c3ccc(N4CCN(C(=O)C[C@@H]5N=C(c6ccc(Cl)cc6)c6c(sc(C)c6C)-n6c(C)nnc65)CC4)nc3)cn2)cc1 [Example 321]	56%	0.1 to 1 µM
Cc1ncsc1-c1ccc([C@H](C)NC(=O)[C@@H]2C[C@@H](O)CN2C(=O)[C@@H](C(C)C)n2cc(-c3ccnc(N4CC(NC(=O)C[C@@H]5N=C(c6ccc(Cl)cc6)c6c(sc(C)c6C)-n6c(C)nnc65)C4)c3)cn2)cc1 [Example 247]	24.1%	> 1 µM
Cc1ncsc1-c1ccc([C@H](C)NC(=O)[C@@H]2C[C@@H](O)CN2C(=O)[C@H](n2cc(-c3ccnc(O[C@H]4C[C@@H](NC(=O)C[C@@H]5N=C(c6ccc(Cl)cc6)c6c(sc(C)c6C)-n6c(C)nnc65)C4)c3)cn2)C(C)(C)C)cc1 [Example 239]	39%	> 1 µM
Cc1ncsc1-c1ccc(CNC(=O)[C@@H]2C[C@@H](O)CN2C(=O)[C@@H](C(C)C)n2cc(-c3cccc(O[C@@H](C)CNC(=O)C[C@@H]4N=C(c5ccc(Cl)cc5)c5c(sc(C)c5C)-n5c(C)nnc54)c3)cn2)cc1 [Example 198]	16%	> 1 µM
Cc1ncsc1-c1ccc([C@H](C)NC(=O)[C@@H]2C[C@@H](O)CN2C(=O)[C@@H](NC(=O)COCCOCCCOc2ccc([C@H](C)NC(=O)C[C@@H]3N=C(c4ccc(Cl)cc4)c4c(sc(C)c4C)-n4c(C)nnc43)cc2)C(C)(C)C)cc1 [Example 34]	99.7%	0.01 to 0.1 µM
Cc1ncsc1-c1ccc(CNC(=O)[C@@H]2C[C@@H](O)CN2C(=O)[C@H](C(C)C)n2cc(-c3cccc(OCCNC(=O)C[C@@H]4N=C(c5ccc(Cl)cc5)c5c(sc(C)c5C)-n5c(C)nnc54)c3)cn2)cc1 [Example 163]	96.5%	< 0.01 µM
Cc1sc2c(c1C)C(c1ccc(Cl)cc1)=N[C@@H](CC(=O)N[C@H]1C[C@H](Oc3ccc(CC(=O)N[C@H](C(=O)N4C[C@H](O)C[C@H]4C(=O)N[C@@H](C)c4ccc(C(=O)N5CCC5)cc4)C(C)(C)C)cc3)C1)c1nnc(C)n1-2 [Example 282]	25.4%	> 1 µM
Cc1ncsc1-c1ccc([C@H](C)NC(=O)[C@@H]2C[C@@H](O)CN2C(=O)[C@@H](NC(=O)CO[C@H]2C[C@H](OCCNC(=O)C[C@@H]3N=C(c4ccc(Cl)cc4)c4c(sc(C)c4C)-n4c(C)nnc43)C2)C(C)(C)C)cc1 [Example 256]	89.5%	< 0.01 µM
Cc1ncsc1-c1ccc(CNC(=O)[C@@H]2C[C@@H](O)CN2C(=O)[C@@H](NC(=O)Cc2ccc(OCCNC(=O)C[C@@H]3N=C(c4ccc(Cl)cc4)c4c(sc(C)c4C)-n4c(C)nnc43)cc2)C(C)(C)C)cc1 [Example 80, (2S,4R)-1-[(2S)-2-{2-[4-(2-{2-[(9S)-7-(4-chlorophenyl)-4,5,13-trimethyl-3-thia-1,8,11,12-tetraazatricyclo[8.3.0.0^2,^6]trideca-2(6),4,7,10,12-pentaen-9-yl]acetamido}ethoxy)phenyl]acetamido}-3,3-dimethylbutanoyl]-4-hydroxy-N-{[4-(4-methyl-1,3-thiazol-5-yl)phenyl]methyl}pyrrolidine-2-carboxamide]	97.5%	0.01 to 0.1 µM
Cc1ncsc1-c1ccc(CNC(=O)[C@@H]2C[C@@H](O)CN2C(=O)[C@@H](NC(=O)Cc2cccc(CCCCNC(=O)C[C@@H]3N=C(c4ccc(Cl)cc4)c4c(sc(C)c4C)-n4c(C)nnc43)c2)C(C)(C)C)cc1 [Example 70, (2S,4R)-1-[(2S)-2-{2-[3-(4-{2-[(9S)-7-(4-chlorophenyl)-4,5,13-trimethyl-3-thia-1,8,11,12-tetraazatricyclo[8.3.0.0^2,^6]trideca-2(6),4,7,10,12-pentaen-9-yl]acetamido}butyl)phenyl]acetamido}-3,3-dimethylbutanoyl]-4-hydroxy-N-{[4-(4-methyl-1,3-thiazol-5-yl)phenyl]methyl}pyrrolidine-2-carboxamide]	88.8%	0.01 to 0.1 µM
Cc1ncsc1-c1ccc(CNC(=O)[C@@H]2C[C@@H](O)CN2C(=O)[C@@H](c2cc(OCCN3CC[C@H](NC(=O)C[C@@H]4N=C(c5ccc(Cl)cc5)c5c(sc(C)c5C)-n5c(C)nnc54)C3)no2)C(C)C)cc1 [Example 310]	94%	< 0.01 µM
Cc1ncsc1-c1ccc(CNC(=O)[C@@H]2C[C@@H](O)CN2C(=O)[C@@H](NC(=O)COCCOCCCOc2ccc([C@@H](C)NC(=O)C[C@@H]3N=C(c4ccc(Cl)cc4)c4c(sc(C)c4C)-n4c(C)nnc43)cc2)C(C)(C)C)cc1 [Example 29]	96.8%	0.01 to 0.1 µM
[2H]C([2H])([2H])C([C@H](NC(=O)c1cc2cc(O[C@H]3C[C@@H](NC(=O)C[C@@H]4N=C(c5ccc(Cl)cc5)c5c(sc(C)c5C)-n5c(C)nnc54)C3)ccc2o1)C(=O)N1C[C@H](O)C[C@H]1C(=O)N[C@@H](C)c1ccc(-c2scnc2C)cc1)(C([2H])([2H])[2H])C([2H])([2H])[2H] [Example 364, (2S,4R)-1-[(2S)-3,3-bis(^2H3)methyl-2-({5-[(1,3-cis)-3-{2-[(9S)-7-(4-chlorophenyl)-4,5,13-trimethyl-3-thia-1,8,11,12-tetraazatricyclo[8.3.0.0^2,^6]trideca-2(6),4,7,10,12-pentaen-9-yl]acetamido}cyclobutoxy]-1-benzofuran-2-yl}formamido)(4,4,4-^2H3)butanoyl]-4-hydroxy-N-[(1S)-1-[4-(4-methyl-1,3-thiazol-5-yl)phenyl]ethyl]pyrrolidine-2-carboxamide]	100%	< 0.01 µM
Cc1sc2c(c1C)C(c1ccc(Cl)cc1)=N[C@@H](CC(=O)N[C@H]1C[C@H](OC3CCN(CC(=O)N[C@H](C(=O)N4C[C@H](O)C[C@H]4C(=O)N[C@@H](C)c4ccc(-c5scnc5CO)cc4)C(C)(C)C)CC3)C1)c1nnc(C)n1-2 [Example 346]	90%	0.01 to 0.1 µM
Cc1ncsc1-c1ccc([C@H](C)NC(=O)[C@@H]2C[C@@H](O)CN2C(=O)[C@@H](C(C)C)n2cc(-c3ccnc(N4CC[C@H](NC(=O)C[C@@H]5N=C(c6ccc(Cl)cc6)c6c(sc(C)c6C)-n6c(C)nnc65)C4)c3)cn2)cc1 [Example 263]	23.5%	> 1 µM
Cc1ncsc1-c1ccc([C@H](C)NC(=O)[C@@H]2C[C@@H](O)CN2C(=O)[C@@H](NC(=O)COc2cc(F)cc(O[C@H]3C[C@@H](NC(=O)C[C@@H]4N=C(c5ccc(Cl)cc5)c5c(sc(C)c5C)-n5c(C)nnc54)C3)c2)C(C)(C)C)cc1 [Example 209]	90%	< 0.01 µM
Cc1ncsc1-c1ccc([C@H](C)NC(=O)[C@@H]2C[C@@H](O)CN2C(=O)[C@@H](NC(=O)C[C@@H]2N=C(c3ccc(Cl)cc3)c3c(sc(C)c3C)-n3c(C)nnc32)C(C)(C)C)cc1 [Example 349]	22%	> 1 µM
Cc1ncsc1-c1ccc([C@H](C)NC(=O)[C@@H]2C[C@@H](O)CN2C(=O)[C@@H](NC(=O)CCc2cc(F)cc(OC(C)CNC(=O)C[C@@H]3N=C(c4ccc(Cl)cc4)c4c(sc(C)c4C)-n4c(C)nnc43)c2)C(C)(C)C)cc1 (stereo partly drawn) [Example 156]	96.5%	< 0.01 µM
Cc1ncsc1-c1ccc(CNC(=O)[C@@H]2C[C@@H](O)CN2C(=O)[C@@H](NC(=O)COCCCOCCCCCNC(=O)C[C@@H]2N=C(c3ccc(Cl)cc3)c3c(sc(C)c3C)-n3c(C)nnc32)C(C)(C)C)cc1 [Example 50, (2S,4R)-1-[(2S)-2-(2-{3-[(5-{2-[(9S)-7-(4-chlorophenyl)-4,5,13-trimethyl-3-thia-1,8,11,12-tetraazatricyclo[8.3.0.0^2,^6]trideca-2(6),4,7, 10,12-pentaen-9-yl]acetamido}pentyl)oxy]propoxy}acetamido)-3,3-dimethylbutanoyl]-4-hydroxy-N-{[4-(4-methyl-1,3-thiazol-5-yl)phenyl]methyl}pyrrolidine-2-carboxamide]	98%	< 0.01 µM
Cc1ncsc1-c1ccc([C@H](C)NC(=O)[C@@H]2C[C@@H](O)CN2C(=O)[C@@H](NC(=O)COCCCOCCN(C)C(=O)C[C@@H]2N=C(c3ccc(Cl)cc3)c3c(sc(C)c3C)-n3c(C)nnc32)C(C)(C)C)cc1 [Example 148]	100%	< 0.01 µM
Cc1ncsc1-c1ccc([C@H](C)NC(=O)[C@@H]2C[C@@H](O)CN2C(=O)[C@@H](NC(=O)c2cc3cc(OCCCNC(=O)C[C@@H]4N=C(c5ccc(Cl)cc5)c5c(sc(C)c5C)-n5c(C)nnc54)ccc3o2)C(C)(C)C)cc1 [Example 170, (2S,4R)-1-[(2S)-2-{[5-(3-{2-[(9S)-7-(4-chlorophenyl)-4,5,13-trimethyl-3-thia-1,8,11,12-tetraazatricyclo[8.3.0.0^2,^6]trideca-2(6),4,7,10,12-pentaen-9-yl]acetamido}propoxy)-1-benzofuran-2-yl]formamido}-3,3-dimethylbutanoyl]-4-hydroxy-N-[(1S)-1-[4-(4-methyl-1,3-thiazol-5-yl)phenyl]ethyl]pyrrolidine-2-carboxamide]	97%	< 0.01 µM

— US11554171B2, “Compounds and methods for the targeted degradation of bromodomain-containing proteins” (Arvinas Operations, Inc., priority 2015, dated 2023)
